Experimental findings from patent publication US10201559B2, “Compositions of selenoorganic compounds and methods of use thereof” (Alltech, Inc., priority 2014, dated 2019) are described below.

Assay [1] relates to PSEN. Put plainly: Western blot, PSEN in IMR-32 cells. It counts as cell-based, human. The settings on record: 150 ppb, 24 hr. As for the experimental part:
(§1) IMR-32 and AML12 cells were seeded on 6-well plates, and then treated with vehicle and various compounds for 6 and 24 hr, as described above. After treatments, cells were rinsed with ice-cold PBS, and lysed in the ice-cold RIPA buffer containing complete proteinase and phosphotase inhibitors (Themo-Fisher Scientific, Waltham, Mass.) on ice for 30 min. Cell lysates were collected using a cell scraper and transfer pipette, and then centrifuged at 12000 g for 30 min at 4° C. to remove the DNA pellet and obtain the protein extract. Protein levels in the supernatant of these cell lysates were determined using the Pierce Micro-BCA protein assay kit (Themo Scientific-Piece Biotechnology, Rockford, Ill.) according to the manufacturer's protocol.
(§2) For Western blot analysis, five micrograms of total proteins from vehicle- and compound(s)-treated cells were subjected to SDS-PAGE gel separation, and then transferred to PVDF membranes, as described previously (Reddy, Liu et al. 2008 Science). […] All primary antibodies except G6PC (Santa Cruz), Actb (Li-COR, Lincoln, Nebr.), Elf2bε and pElf2bε (Abcam, Cambridge, Mass.) were purchased from Cell Signaling Inc. Positive signals on the membrane blots were detected using the Amersham's enhanced chemiluminescence Western Blotting Prime Detection reagents (GE healthcare Lifescience, Pittsburgh, Pa.). […]

The test system of assay [2] is C2C12 cells. Put plainly: Quantitative analysis of mitochondrial potential in C2C12 cells. Particulars: for MT potential: 24 hr, compared to control. It counts as cell-based, mouse. How it is done:
For C2C12 cells, equal number of cells (1×10^4) were seeded on Corning 96-well clear-bottom and dark-wall cell culture plates (VWR), cultured in 10% FBS DMEM media for 24 hr., and then treated with vehicle (sterilized water), compound C and D and their sulfur analogs for 24 and 48 hrs. These vehicle- or compound-treated cells were rinsed twice with PBS, incubated with Mitotracker Orange fluorescence dye at 37° C. for 30 min, and then replaced with PBS. Mitotracker Orange fluorescence intensities (mitochondrial potential) in these living cells were determined by a Bio-TeK Synergy HT Multi-Mode Fluorescence Microplate Reader (Winooski, Vt.). Eight samples per each treatment were examined for the above analysis, and data are presented as mean±sem of eight samples.

In assay [3] the test system is PEN2. Put plainly: Western blot, PEN2 in IMR-32 cells. It counts as cell-based, human. Particulars: 150 ppb, 24 hr. As for the experimental part: as §1, §2
Assay [4] relates to Gsk3b. Put plainly: Western blot, Gsk3b in IMR-32 cells. It counts as cell-based, human. The settings on record: 150 ppb, 24 hr, compared to control cells. As for the experimental part: as §1, §2
Assay [5] relates to beta-secretase BACE. The assay can be described thus: Western blot, BACE in IMR-32 cells. Particulars: 150 ppb, 24 hr. It counts as cell-based, human. As for the experimental part: as §1, §2
Background: Immunoblotting shows a protein as a band on a membrane.

Molecules are shown by their SMILES. Entries after “also recorded” stand apart in the source; their conditions may differ.

On to `C[Se]C[C@H]1O[C@@H](n2cnc3c(N)ncnc32)C(O)C1O` (stereo in doubt) [compound C, 5′-Methylselenoadenosine], for which the PSEN protein level result in assay [1] was “significant reduction”. Moreover, the MT potential entry in assay [2] is given as “significantly enhanced MT potential”. Further, the PEN2 protein result in assay [3] is “but not PEN2 and beta-secretase BACE proteins were attenuated”. Further, the Gsk3b protein levels entry in assay [4] is “statistically significant decrease of Gsk3b protein levels”. In assay [5], the “beta-secretase BACE protein” value is “but not PEN2 and beta-secretase BACE proteins were attenuated”.

In the case of `Nc1ncnc2c1ncn2[C@@H]1O[C@H](C[Se]CC[C@@H](N)C(=O)O)C(O)C1O` (some centres unmarked) [compound D, 5′-Selenoadenosyl homocysteine], in assay [2], the MT potential result is recorded as “significantly enhanced MT potential”. In assay [2] (lower doses (37.5 and 75 ppb)), the “potency on MT potential relative to compound C” value was “more potent than compound C”. Moreover, the “stimulation of mitochondrial activity over control levels” value in assay [2] (most effective dose) is listed as “two-fold over control levels; also recorded: two-fold stimulation of mitochondrial activity”.
